Laboratory results published in patent US11524096B2, “Wetting agent formulation” (TELEFLEX LIFE SCIENCES PTE. LTD., priority 2016, dated 2022).

Tests used:
[1] = without propylene glycol; cited from earlier work
[2] = Relative dissolution of propyl gallate depending on sequence of mixing steps; assay type: physicochemical
From the text: In the case where glycerol is employed, it may be necessary to add some heat to the solution in order to achieve full dissolution of the propyl gallate. Further, the sequence of the mixing steps and its effect on the relative dissolution of propyl gallate when all component concentrations and temperature are kept constant, is as follows: • Addition of propylene glycol to propyl gallate, then addition of saline or distilled water: fast reaction (high rate of dissolution of propyl gallate); • Addition of saline/distilled water to propyl gallate, then addition of propylene glycol: slow reaction (low rate of dissolution of propyl gallate); • Addition of propylene glycol to saline/distilled water, then addition of propyl gallate: fast reaction (high rate of dissolution of propyl gallate); • Employing glycerol instead of propylene glycol: slow reaction (low rate of dissolution of propyl gallate).

rate of dissolution of propyl gallate ([2]; Addition of propylene glycol to propyl gallate, then addition of saline or distilled water, concentrations and temperature constant): fast reaction
rate of dissolution of propyl gallate ([2]; Addition of propylene glycol to saline/distilled water, then addition of propyl gallate): fast reaction
rate of dissolution of propyl gallate ([2]; Addition of saline/distilled water to propyl gallate, then addition of propylene glycol): slow reaction
rate of dissolution of propyl gallate ([2]; Employing glycerol instead of propylene glycol): slow reaction
Compound: CCCOC(=O)c1cc(O)c(O)c(O)c1 [PG, propyl 3,4,5-trihydroxybenzoate]
solubility in water (in words) [1]: only slightly soluble
